Five compounds from US20260176320A1, “MODULATORS OF G-PROTEIN COUPLED RECEPTORS” (priority 2018, published 2026) can be followed below.

Read-outs that look alike come from different tables or passages of the source.

One test addresses T1, GIP-R (Homo sapiens, UniProt P48546).
T1 sequence (P48546 22-466): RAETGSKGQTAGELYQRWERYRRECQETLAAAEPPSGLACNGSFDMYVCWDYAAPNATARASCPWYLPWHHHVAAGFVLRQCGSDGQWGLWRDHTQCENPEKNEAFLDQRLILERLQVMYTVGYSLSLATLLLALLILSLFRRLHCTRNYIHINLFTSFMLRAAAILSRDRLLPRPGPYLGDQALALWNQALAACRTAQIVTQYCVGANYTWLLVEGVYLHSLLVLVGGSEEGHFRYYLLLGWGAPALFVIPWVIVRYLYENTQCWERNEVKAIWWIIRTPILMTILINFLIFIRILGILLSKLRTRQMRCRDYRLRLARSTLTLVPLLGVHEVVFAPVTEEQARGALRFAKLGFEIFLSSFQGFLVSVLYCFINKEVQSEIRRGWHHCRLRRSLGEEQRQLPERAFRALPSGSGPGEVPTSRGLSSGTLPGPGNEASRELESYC
The experiment in a line: HitHunter cAMP assay (GIP-R). Format: cell-based. Conditions: cAMP; for Emax: read-out: (Emax) GIP-R. Summed up: (§1)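 cAMP, luminescence read: agonist 22-pt 2× dilution in DMSO, duplicate, 30 min RT on 10,000 cells/well in 1×HBSS/10 mM HEPES/625 μM IBMX/0.2% BSA; anti-cAMP reagent 1 h RT dark, then O/N RT dark before read.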

The subject of another test is mice. The experiment in a line: Glucose tolerance test (GTT). To be noted: 24 h GTT, s.c., dose range 2-5 nmol/kg, percent of vehicle. It is filed as in vivo, mouse. As to the method: Freestyle Lite glucometer and strips; compounds to be tested; sterilized glucose solution 200 mg/ml.
Compounds were diluted in PBS from the 1 mM DMSO stocks right before injection. Body weight and baseline blood glucose level for each mouse were measured. Tails were snipped using sterile scissors; blood from tails was used to measure glucose. For 0.25 h GTT, mice were fasted for 5-6 h and injected with compound subcutaneously 15 mins before glucose injection. For 4 h GTT, mice were fasted O/N for 16 h and injected with compound subcutaneously 4 h before glucose injection. For 16 h GTT, mice were injected with compound subcutaneously 16 h before glucose injection; food was removed at the same time. For 24 h GTT, mice were injected with compound subcutaneously 24 h before glucose injection; food was removed 5-6 h before glucose injection. 20% glucose in water was prepared; the solution was sterilized by 0.2 μm-filtration. An intraperitoneal injection of glucose (2 g/kg) was given to the mouse. Continued to take blood samples from the tail. Blood glucose was measured at 10, 20, 30, 40, 60, 90, and 120 minutes after glucose injection. Between each of these time points, the mouse was returned to its cage and monitored (at least 6 replicate mice were used for each time-point). The average glucose measurements were plotted as a function of time and the area under the curve (AUC) was determined.

For test [1], the target named is T2, GLP-1R (Homo sapiens, UniProt P43220). In words: PathHunter β-arrestin assay. Format: cell-based. Summed up:
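Luminescence read-out of β-arrestin recruitment (enzyme-fragment complementation detection, 3 h at room temperature in the dark) after 90 min agonist stimulation at 37 °C. Agonists tested as 22-point 2× serial dilutions in duplicate, in medium containing 0.2% BSA.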

The target in test [2] is T2, GLP-1R. In words: HitHunter cAMP assay (GLP-1R). It is filed as cell-based. To be noted: cAMP; for Emax: read-out: (Emax) GLP-1R. Summed up: as §1
[3] abbreviates: Table 3, read-out: EC50 GIP-R/nM.
[4] abbreviates: Table 3A, read-out: EC50 GIP-R/nM.
The mark [5] stands for this setting: PathHunter β-arrestin assay, read-out: β-arrestin activity EC50.
Where [6] appears, read: Table 3, read-out: EC50 GLP-1R/nM.
[7] abbreviates: Table 3A, read-out: EC50 GLP-1R/nM.

T2 sequence (P43220 24-463): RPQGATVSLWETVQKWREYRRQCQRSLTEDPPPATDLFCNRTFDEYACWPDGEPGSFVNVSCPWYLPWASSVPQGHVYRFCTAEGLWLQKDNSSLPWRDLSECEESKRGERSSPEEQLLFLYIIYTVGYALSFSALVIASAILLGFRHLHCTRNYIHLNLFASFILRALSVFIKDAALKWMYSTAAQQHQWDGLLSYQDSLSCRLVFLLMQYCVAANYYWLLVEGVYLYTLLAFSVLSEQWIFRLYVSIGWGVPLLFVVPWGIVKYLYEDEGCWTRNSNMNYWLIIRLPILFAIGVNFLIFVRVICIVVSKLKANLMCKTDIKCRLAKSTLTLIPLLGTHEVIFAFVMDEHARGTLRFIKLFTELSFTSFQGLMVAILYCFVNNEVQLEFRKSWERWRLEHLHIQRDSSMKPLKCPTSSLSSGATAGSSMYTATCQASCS

`CCCCCCCCCCCCCCCC(=O)N[C@@H](CCC(=O)NCCCC[C@H](NC(=O)[C@H](CO)NC(=O)[C@@H]1CCCN1C(=O)[C@@H]1CCCN1C(=O)[C@@H]1CCCN1C(=O)[C@H](C)NC(=O)CNC(=O)[C@H](CO)NC(=O)[C@H](CO)NC(=O)[C@@H]1CCCN1C(=O)CNC(=O)CNC(=O)[C@H](C)NC(=O)[C@H](CC(C)C)NC(=O)[C@H](CC(C)C)NC(=O)[C@H](Cc1c[nH]c2ccccc12)NC(=O)[C@H](CC(N)=O)NC(=O)[C@@H](NC(=O)[C@H](Cc1ccccc1)NC(=O)[C@H](CCC(=O)O)NC(=O)C(C)(C)NC(=O)[C@H](C)NC(=O)[C@H](C)NC(=O)[C@H](CCC(N)=O)NC(=O)[C@H](CCCCN)NC(=O)[C@H](CC(=O)O)NC(=O)[C@H](CC(C)C)NC(=O)[C@H](Cc1ccc(O)cc1)NC(=O)[C@@H](NC(=O)[C@H](CO)NC(=O)[C@H](Cc1ccc(O)cc1)NC(=O)[C@H](CC(=O)O)NC(=O)[C@H](CO)NC(=O)[C@@H](NC(=O)[C@H](Cc1ccccc1)NC(=O)[C@@H](NC(=O)CNC(=O)[C@H](CCC(=O)O)NC(=O)CSCC(=O)NCCN1CCC(C)C1=O)[C@@H](C)O)[C@@H](C)O)[C@@H](C)CC)C(C)C)C(N)=O)C(=O)O` (single isomer, unassigned) [Compound 68]: the maximal response (Emax) on GIP-R (Table 3) was found to be 87%; on GIP-R (Table 3A), 87%; at GLP-1R [2] (Table 3) it was 109%; at GLP-1R [2] (Table 3A), 109%. For the same compound, the EC50 at GIP-R (setting [3]) is 0.1 to 1 nM; at GIP-R (setting [4]) it was 0.1 to 1 nM; on GLP-1R [1] (setting [5]), above 1000 nM; on GLP-1R [2] (setting [6]) it was 0.1 to 1 nM; at GLP-1R [2] (setting [7]), 0.1 to 1 nM. Further, the AUC score in the test with mice was 2 (AUC score 2 = 26-50%).
For `CCCCCCCCCCCCCCCC(=O)N[C@@H](CCC(=O)NCCCC[C@H](NC(=O)[C@H](CO)NC(=O)[C@@H]1CCCN1C(=O)[C@@H]1CCCN1C(=O)[C@@H]1CCCN1C(=O)[C@H](C)NC(=O)CNC(=O)[C@H](CO)NC(=O)[C@H](CO)NC(=O)[C@@H]1CCCN1C(=O)CNC(=O)CNC(=O)[C@H](C)NC(=O)[C@H](CC(C)C)NC(=O)[C@H](CC(C)C)NC(=O)[C@H](Cc1c[nH]c2ccccc12)NC(=O)[C@H](CC(N)=O)NC(=O)[C@@H](NC(=O)[C@H](Cc1ccccc1)NC(=O)[C@H](CCC(=O)O)NC(=O)C(C)(C)NC(=O)[C@H](C)NC(=O)[C@H](C)NC(=O)[C@H](CCC(N)=O)NC(=O)[C@H](CCCCN)NC(=O)[C@H](CC(=O)O)NC(=O)[C@H](CC(C)C)NC(=O)[C@H](Cc1ccc(O)cc1)NC(=O)[C@@H](NC(=O)[C@H](CO)NC(=O)[C@H](Cc1ccc(O)cc1)NC(=O)[C@H](CC(=O)O)NC(=O)[C@H](CO)NC(=O)[C@@H](NC(=O)[C@H](Cc1ccccc1)NC(=O)[C@@H](NC(=O)CNC(=O)[C@H](CCC(=O)O)NC(=O)CSCC(=O)NCCN1CCC(C)C1=O)[C@@H](C)O)[C@@H](C)O)[C@@H](C)CC)C(C)C)C(N)=O)C(=O)O` (single isomer, unassigned) [Compound 69], the “(Emax) GIP-R” value at GIP-R (Table 3) and on GIP-R (Table 3A) was 75% each time. For the same compound, the EC50 on GIP-R (setting [3]) was 1 to 10 nM; at GIP-R (setting [4]), 1 to 10 nM; on GLP-1R [1] (setting [5]), above 1000 nM; on GLP-1R [2] (setting [6]) it was 0.1 to 1 nM; on GLP-1R [2] (setting [7]), 0.1 to 1 nM. Also, in the test with mice, the AUC score is 2 (AUC score 2 = 26-50%). Also, the “(Emax) GLP-1R” value at GLP-1R [2] (Table 3) and at GLP-1R [2] (Table 3A) was 104% in each case.
For the compound `CCCCCCCCCCCCCCCC(=O)N[C@@H](CCC(=O)NCCCC[C@H](NC(=O)[C@H](CO)NC(=O)[C@@H]1CCCN1C(=O)[C@@H]1CCCN1C(=O)[C@@H]1CCCN1C(=O)[C@H](C)NC(=O)CNC(=O)[C@H](CO)NC(=O)[C@H](CO)NC(=O)[C@@H]1CCCN1C(=O)CNC(=O)CNC(=O)[C@H](C)NC(=O)[C@H](CC(C)C)NC(=O)[C@H](CC(C)C)NC(=O)[C@H](Cc1c[nH]c2ccccc12)NC(=O)[C@H](CC(N)=O)NC(=O)[C@@H](NC(=O)[C@H](Cc1ccccc1)NC(=O)[C@H](CCC(=O)O)NC(=O)C(C)(C)NC(=O)[C@H](C)NC(=O)[C@H](C)NC(=O)[C@H](CCC(N)=O)NC(=O)[C@H](CCCCN)NC(=O)[C@H](CC(=O)O)NC(=O)[C@H](CC(C)C)NC(=O)[C@H](Cc1ccc(O)cc1)NC(=O)[C@@H](NC(=O)[C@H](CO)NC(=O)[C@H](Cc1ccc(O)cc1)NC(=O)[C@H](CC(=O)O)NC(=O)[C@H](CO)NC(=O)[C@@H](NC(=O)[C@H](Cc1ccccc1)NC(=O)[C@@H](NC(=O)CNC(=O)[C@H](CCC(=O)O)NC(=O)CSCC(=O)NCCN1C(=O)COC1=O)[C@@H](C)O)[C@@H](C)O)[C@@H](C)CC)C(C)C)C(N)=O)C(=O)O` [Compound 59], the maximum response (Emax) on GIP-R (Table 3) is 31%; on GIP-R (Table 3A), 31%; on GLP-1R [2] (Table 3) it was 108%; on GLP-1R [2] (Table 3A), 108%. The EC50 is 1 to 10 nM at GIP-R (setting [3]), 1 to 10 nM at GIP-R (setting [4]), below 0.1 nM on GLP-1R [2] (setting [6]) and below 0.1 nM on GLP-1R [2] (setting [7]). Moreover, the AUC score in the test with mice was 3 (AUC score 3 = 51-75%).
As for `CCCCCCCCCCCCCCCC(=O)N[C@@H](CCC(=O)NCCCC[C@H](NC(=O)[C@H](CO)NC(=O)[C@@H]1CCCN1C(=O)[C@@H]1CCCN1C(=O)[C@@H]1CCCN1C(=O)[C@H](C)NC(=O)CNC(=O)[C@H](CO)NC(=O)[C@H](CO)NC(=O)[C@@H]1CCCN1C(=O)CNC(=O)CNC(=O)[C@H](C)NC(=O)[C@H](CC(C)C)NC(=O)[C@H](CC(C)C)NC(=O)[C@H](Cc1c[nH]c2ccccc12)NC(=O)[C@H](CC(N)=O)NC(=O)[C@@H](NC(=O)[C@H](Cc1ccccc1)NC(=O)[C@H](CCC(=O)O)NC(=O)C(C)(C)NC(=O)[C@H](C)NC(=O)[C@H](C)NC(=O)[C@H](CCC(N)=O)NC(=O)[C@H](CCCCN)NC(=O)[C@H](CC(=O)O)NC(=O)[C@H](CC(C)C)NC(=O)[C@H](Cc1ccc(O)cc1)NC(=O)[C@@H](NC(=O)[C@H](CO)NC(=O)[C@H](Cc1ccc(O)cc1)NC(=O)[C@H](CC(=O)O)NC(=O)[C@H](CO)NC(=O)[C@@H](NC(=O)[C@H](Cc1ccccc1)NC(=O)[C@@H](NC(=O)CNC(=O)[C@H](CCC(=O)O)NC(=O)CCNC(=O)CCN1CCCC1=O)[C@@H](C)O)[C@@H](C)O)[C@@H](C)CC)C(C)C)C(N)=O)C(=O)O` [Compound 265], the Emax at GIP-R (Table 3A) was found to be 80%; on GLP-1R [2] (Table 3A), 100%. The EC50 on GIP-R (setting [4]) was 0.1 to 1 nM; at GLP-1R [1] (setting [5]) it was below 10 nM; at GLP-1R [2] (setting [7]) it was below 0.1 nM.
As for `CCCCCCCCCCCCCCCC(=O)N[C@@H](CCC(=O)NCCCC[C@H](NC(=O)[C@H](CO)NC(=O)[C@@H]1CCCN1C(=O)[C@@H]1CCCN1C(=O)[C@@H]1CCCN1C(=O)[C@H](C)NC(=O)CNC(=O)[C@H](CO)NC(=O)[C@H](CO)NC(=O)[C@@H]1CCCN1C(=O)CNC(=O)CNC(=O)[C@H](C)NC(=O)[C@H](CC(C)C)NC(=O)[C@H](CC(C)C)NC(=O)[C@H](Cc1c[nH]c2ccccc12)NC(=O)[C@H](CC(N)=O)NC(=O)[C@@H](NC(=O)[C@H](Cc1ccccc1)NC(=O)[C@H](CCC(=O)O)NC(=O)C(C)(C)NC(=O)[C@H](C)NC(=O)[C@H](C)NC(=O)[C@H](CCC(N)=O)NC(=O)[C@H](CCCCN)NC(=O)[C@H](CC(=O)O)NC(=O)[C@H](CC(C)C)NC(=O)[C@H](Cc1ccc(O)cc1)NC(=O)[C@@H](NC(=O)[C@H](CO)NC(=O)[C@H](Cc1ccc(O)cc1)NC(=O)[C@H](CC(=O)O)NC(=O)[C@H](CO)NC(=O)[C@@H](NC(=O)[C@H](Cc1ccccc1)NC(=O)[C@@H](NC(=O)CNC(=O)[C@H](CCC(=O)O)NC(=O)CSCC(=O)NCCn1ccc(C)cc1=O)[C@@H](C)O)[C@@H](C)O)[C@@H](C)CC)C(C)C)C(N)=O)C(=O)O` [Compound 285], the EC50 on GIP-R (EC50 GIP-R/nM, Table 3A) was 0.1 to 1 nM; at GLP-1R [1] it was above 1000 nM; on GLP-1R [2] (EC50 GLP-1R/nM, Table 3A), below 0.1 nM. Also, the Emax turned out to be 97% on GIP-R (Table 3A) and 99% at GLP-1R [2] (Table 3A).
